US6458382B1, “Nucleic acid transfer complexes” (Mirus Corporation, priority 1999, dated 2002)

Columns and labels:
[1] = tested on: Sf9 cells; assay: Transfection of Sf9 cells, β-galactosidase reporter (Examples 3, 4); type: cell-based, Spodoptera frugiperda; conditions: for Efficiency of detergent added to DOTAP/neutral lipid reagent, in words: transfecting Sf9 cells
Procedure: Sf21 (Spodoptera frugiperda pupal ovarian cells) cells were maintained in TC-100 medium, and High Five or BTI-TN-5BI-4 (Trichoplusia ni embryonic ovarian cells) cells were maintained in Ex-Cell medium at 27° C. in an atmosphere of 5% CO2 in air. S2 (Drosophila melanogaster embryonic cells) were maintained in Shields and Sang M3 medium supplemented with 5% FCS at 25° C. The cells were seeded in a 6-well plate (35 mm culture dishes) 24 h before the transfection at 70% confluence. Before transfection, the cells were washed once or twice with serum-free medium, and placed in 2 ml serum-free medium per 35-mm dish. The liposomes were diluted in 0.15 ml of serum-free medium. Following a 5 minute incubation at room temperature, two μg of plasmid DNA (containing the luciferase or β-galactosidase reporter genes described below) was added, followed by a 5 minute incubation at room temperature prior to being added to the cells in the culture dish. The cells were incubated under the appropriate conditions. After four hours, the transfection mixture was removed and replaced with 2 ml of regular culture medium. […]
The firefly luciferase and E. coli β-galactosidase reporter genes were used to determine the efficiency of DNA transfer quantitatively. […]
For determination of luciferase activity, cells were lysed by the addition of 200 μl of lysis buffer (0.1% Triton X-100, 0.1M K-phosphate, 1 mM DTT, pH 7.8). Ten μl of the cellular extract were analyzed for luciferase activity, using the Enhanced Luciferase Assay kit (Mirus). For determination of β-galactosidase activity, the cells were lysed by the addition of 200 μl of lysis buffer (0.1% Triton X-100, 0.1M K-phosphate, 1 mM DTT, pH 7.8). β-Galactosidase activity was determined using a chemiluminescent assay (Tropix).
Two μg of the β-galactosidase expression vector pIE1HR5/LacZ were transfected into Sf9 cells using TRANSIT-INSECTA, Reagent C (CELLFECTIN from Life Technologies) and Reagent I (INSECTIN-PLUS from Invitrogen). […] Reporter gene expression was determined after 2 days using a chemiluminescent assay (Tropix). […]

[2] = tested on: insect cells; assay: Transfection of insect cells with DOTAP-based reagent; conditions: insect cell lines grown in vitro (e.g., Sf9, Sf21, High Five, S2)
From the text: Addition of detergents increases the efficiency of a transfection reagent. However, the optimal type and amount of detergent vary for different transfection reagents and target cell types. […] In a typical transfection reagent, the DOTAP is mixed with a neutral lipid (e.g., DOPE, cholesterol) to form a liposome. […] Optimal enhancement with DLPE was obtained over a range of 1-10% (weight percentage of total composition of DOTAP, DOPE, and neutral lipid).

[3] = background statement on prior art; cited from earlier work

Structure (SMILES): CCCCCCCCCCCC(=O)OC[C@H](COP(=O)([O-])OCC[N+](C)(C)C)OC(=O)CCCCCCCCCCC [DLPC, dilauroylphosphatidylcholine]
- Efficiency of detergent added to DOTAP/neutral lipid reagent, in words [1]: more efficient than addition of CHAPS

Structure (SMILES): CCCCCCCCCCCC(=O)OC[C@H](COP(=O)(O)OCCN)OC(=O)CCCCCCCCCCC [DLPE, dilauroyl phosphatidylethanolamine]
- Efficiency of detergent added to DOTAP/neutral lipid reagent, in words [1]: more efficient than addition of CHAPS
- Range of DLPE giving optimal enhancement of transfection efficiency ([1]; weight percentage of total composition of DOTAP, DOPE, and neutral lipid): 1-10%

Structure (SMILES): CCCCCCCC/C=C\CCCCCCCC(=O)OCC(C[N+](C)(C)C)OC(=O)CCCCCCC/C=C\CCCCCCCC (centres unmarked) [DOTAP, 1,2-bis(oleoyloxy)-3-(4′-trimethylammonio)propane]
- Transfection efficiency for insect cells, in words [2]: efficient transfection reagent

Structure (SMILES): CCCCCCCCCCCCCCCCCCN [Stearylamine]
- cytotoxicity, in words [3]: great cytotoxicity
